Legend:
SW480 [1] = assay: Growth inhibition of human SW480 cells at 10 uM after 24 hrs by MTS assay relative to control; format: functional; conditions: SW480, 24 h, read-out: GI
MCF7 [2] = assay: Cytotoxicity against human MCF7 cells assessed as reduction in cell viability after 24 hrs by MTS assay; format: functional, cell-based; conditions: MCF7, 24 h
HepG2 = assay: Growth inhibition of human HepG2 cells at 10 uM after 24 hrs by MTS assay relative to control; format: functional; conditions: HepG2, 24 h, read-out: GI
[3] = molecular target: T1, Tyrosine-protein phosphatase non-receptor type 1 (Homo sapiens) (UniProt P18031); assay: Inhibition of recombinant human PTP1B using p-nitrophenyl phosphate as substrate at 10 uM after 30 mins relative to control
T1 sequence (whole entry): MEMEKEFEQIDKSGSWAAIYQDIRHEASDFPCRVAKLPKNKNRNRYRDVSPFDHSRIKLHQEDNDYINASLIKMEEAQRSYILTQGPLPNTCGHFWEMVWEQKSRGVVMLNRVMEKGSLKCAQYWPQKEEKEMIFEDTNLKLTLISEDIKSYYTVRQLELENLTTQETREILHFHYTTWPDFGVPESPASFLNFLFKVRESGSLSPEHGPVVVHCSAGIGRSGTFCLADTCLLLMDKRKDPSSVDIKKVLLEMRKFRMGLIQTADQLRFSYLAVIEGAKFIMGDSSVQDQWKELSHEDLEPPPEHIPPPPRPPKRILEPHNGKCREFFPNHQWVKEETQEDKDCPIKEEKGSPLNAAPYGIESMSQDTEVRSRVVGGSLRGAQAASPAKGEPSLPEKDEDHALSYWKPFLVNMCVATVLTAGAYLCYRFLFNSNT

Homo sapiens = species on record: Homo sapiens; assay: Inhibition of LPS-induced NF-kappaB transcription (unknown origin) expressed in human SW480 cells at 10 uM by luciferase reporter gene assay; format: cell-based
MCF7 [4] = assay: Growth inhibition of human MCF7 cells at 10 uM after 24 hrs by MTS assay relative to control; format: functional; conditions: MCF7, 24 h, read-out: GI
[5] = Growth inhibition of human LO2 cells at 10 uM after 24 hrs by MTS assay relative to control; format: cell-based, L02; conditions: LO2 cells, read-out: GI
[6] = molecular target: Mushroom tyrosinase (Agaricus bisporus) (UniProt O42713+Q00024+C7FF04+C7FF05); assay: Inhibition of mushroom tyrosinase at 10 uM using L-tyrosine as substrate incubated for 15 mins followed by substrate addition relative to control
RAW264.7 = assay: Antiinflammatory activity in mouse RAW264.7 cells assessed as inhibition of LPS-induced NO production at 10 uM after 24 hrs by Griess reagent based assay relative to control; format: functional; conditions: RAW264.7, 24 h
[7] = Growth inhibition of human HEK293T cells at 10 uM after 24 hrs by MTS assay relative to control; format: cell-based, HEK-293T; conditions: HEK293T cells, read-out: GI
[8] = Inhibition of LPS-induced NF-kappaB transcription (unknown origin) expressed in human SW480 cells by luciferase reporter gene assay; format: cell-based
[9] = molecular target: T2, Tyrosine-protein phosphatase non-receptor type 1 (Homo sapiens, UniProt P18031); assay: Inhibition of recombinant human PTP1B using p-nitrophenyl phosphate as substrate after 30 mins
T2 sequence (P18031 whole entry): T1 sequence (whole entry)

SW480 [10] = assay: Cytotoxicity against human SW480 cells assessed as reduction in cell viability after 24 hrs by MTS assay; format: functional, cell-based; conditions: SW480, 24 h

Row | SMILES | inhibition of growth at 10 µM (SW480 [1]) | IC50 (MCF7 [2]) | inhibition of growth at 10 µM (HepG2) | inhibition [3] | inhibition (Homo sapiens) | inhibition of growth at 10 µM (MCF7 [4]) | inhibition at 24 h, 10 µM [5] | inhibition [6] | inhibition at 10 µM (RAW264.7) | inhibition at 24 h, 10 µM [7] | IC50 [8] | IC50 [9] | IC50 (SW480 [10])
1 | CC(C)=CCc1c(O)c(CC=C(C)C)c2oc(-c3ccc(O)cc3)cc(=O)c2c1O | 61% | 12.2 µM | 11% | 47% | 34% | 68% | 46% | 0% | 9% | 20% |  |  | 
2 | C=CC(C)(C)c1cc(/C=C/C(=O)c2ccc(O)cc2)c(OC)cc1O [LICOAGROCHACONE A] | 7% |  | 14% | 18% | 56% | 10% | 16% | 1% | 39% | 4% | 13.9 µM |  | 
3 | CC(C)=CCc1c(O)ccc([C@H]2COc3cc(O)c(CC=C(C)C)c(O)c3C2=O)c1O | 2% |  | 25% | 98% | 37% | 44% | 0% | 7% | 14% | 4% |  | 0.84 µM | 
4 | CC(C)=CCc1cc([C@@H]2CC(=O)c3c(cc(O)c(CC=C(C)C)c3O)O2)ccc1O [MACARANGAFLAVANONE B] | 87% |  | 10% | 90% | 24% | 36% |  | 5% | 5% |  |  | 1.03 µM | 
5 | CC(C)=CCc1cc(/C=C/C(=O)c2ccc(O)cc2O)ccc1O [LICOAGROCHALCONE A] | 12% |  | 2% | 98% | 25% | 2% | 3% | 16% | 16% | 2% |  | 0.97 µM | 
6 | CC(C)=CCc1c(O)ccc2c1O[C@H](c1ccc3c(c1)C=CC(C)(C)O3)CC2=O | 72% | 12.9 µM | 14% | 50% | 20% | 75% | 2% | 15% | 24% | 25% |  |  | 9.84 µM
7 | CC1(C)C=Cc2cc(/C=C/C(=O)c3ccc(O)cc3O)ccc2O1 | 14% |  | 0% | 33% | 78% | 14% | 5% | 1% | 23% | 7% | 7.27 µM |  | 
8 | CC1(C)C=Cc2c(ccc(-c3cc4ccc(O)cc4o3)c2O)O1 | 31% |  | 5% | 15% | 73% | 0% | 4% | 14% | 22% | 11% | 3.1 µM |  | 
9 | COc1ccc(-c2coc3cc(O)ccc3c2=O)c(O)c1 [XENOGNOSIN B] | 13% |  | 0% | 47% | 4% | 1% |  | 11% | 1% |  |  |  | 
10 | CC(C)=CCc1c(O)ccc(C(=O)/C=C/c2ccc(O)cc2)c1O [ISOBAVACHALCONE] | 20% |  | 39% | 73% | 0% | 16% |  | 14% | 0% |  |  |  | 
11 | CC(C)=CCc1cc(/C=C/C(=O)c2ccc(O)c(CC=C(C)C)c2O)ccc1O [KANZONOL C] | 96% | 9.15 µM | 27% | 90% | 6% | 79% | 34% | 0% | 19% | 21% |  | 0.45 µM | 6.1 µM
12 | O=c1cc(-c2ccc(O)cc2)oc2cc(O)ccc12 | 22% |  | 18% | 55% | 0% | 11% |  | 11% | 5% |  |  |  | 

Source: ChEMBL document CHEMBL4033705, “Screening for bioactive natural products from a 67-compound library of Glycyrrhiza inflata” (Bioorg Med Chem, 2017)
